Where two headings read alike, the source gives them in different places.
Assays:
PFKFB3 [1] = target: T1, PFKFB3 (Homo sapiens, UniProt Q16875); test: Enzymatic activity of recombinant PFKFB3, ADP-Glo assay; type: biochemical
Experimental: The inducible bifunctional 6-Phosphofructo-2-kinase/fructose2,6-biphosphatase enzyme (PFKFB3) was expressed and purified in order to determine if PFK-158 inhibits enzymatic activity. PFKFB3 was prepared by expression in E. coli and purified by GST column and column chromatography. […] The recombinant protein was pure and active as determined by the results of a commercially available kinase activity assay (ADP-Glo™, Promega, Madison, Wis.).

[2] = test system: Jurkat cell line (leukemia cell line); test: Toxicity / cell growth of Jurkat cell line; type: cell-based; details: Homo sapiens
Experimental: The ability of PFK-158 to kill or inhibit the proliferation of cancer cells was measured using either the MTT assay, the alamarBlue® assay (Invitrogen, Grand Island, N.Y.), or the CellTiter Glo™ assay (Promega, Madison, Wis.) using 48 or 72 hours exposure.
Cells of the desired tumor cell line were plated at 2×10^5 cells/ml in 96 well plates. Twice the indicated concentrations of the compounds of the invention were added to cells the following day in an equal volume of media. 72 hours later, cells were lysed and subjected to ATP determination using the CellTiter-Glo™ Luminescent Cell Viability Assay kit. Experiments were performed in triplicate. When using the MTT assay or the alamarBlue® assay, the experimental conditions are essentially similar; at the end of the incubation period, 20 microliters of the MTT solution is added per well and the samples are incubated for an additional four hours, rinsed, and absorbance at 570 nm was measured. Results for the inhibition of cell proliferation are reported as the IC50 (the concentration resulting in 50% inhibition of proliferation of the cell population) and are listed in Table 5 below. Cell lines include lung, colon, prostate, breast, ovarian, and pancreatic cancer lines.

[3] = IV pharmacokinetics in mice; type: in vivo, Balbc mice
Experimental: (§1) The pharmacokinetic (PK) parameters for PFK-158 were determined in mice following IV (intravenous) administration in mice and rats. A typical study design includes six animals (male or female) 7 to 8 weeks old.
(§2) Mouse pharmacokinetic properties using a dose of 5 mg/kg were determined after IV administration using a 10% DMSO, 10% PEG-200, 10% Solutol:ethanol (1:1) and 70% D5W solution or any other pharmaceutically acceptable parenteral formulation. Blood samples were collected at different intervals. Plasma samples were extracted and analyzed using an LC-MS/MS method. Similar protocols were used for the rat PK study (Sprague Dawley rats; 30 mg/kg), although the formulation for rat PK studies differed (30% Captisol, pH 3.0 solution). Time vs. plasma concentration plots were prepared as shown in FIGS. 4 (BalbC mice) and 5 (SD rats), respectively. Pharmacokinetic parameters were calculated and are provided below in Table 7.

[4] = IV pharmacokinetics in rats, 30 mg/kg; type: in vivo; details: Table 7, Rat (30 mg/kg), Sprague Dawley rats
Experimental: as §1, §2

LLC tumor = test: Lewis lung carcinoma (LLC) model; type: in vivo; details: IP 60 mg/kg on days 1, 3, 5, 7, 9, 11, 13
From the text: Treatment began following randomization.

[5] = Toxicology study in dogs at 40 mg/kg; type: in vivo, beagle dogs
Experimental: In another embodiment, the potential toxicity of PFK-158 (in the form of its dication) was investigated at 40 mg/kg in male and female beagle dogs using a 3 day a week for a total of three weeks dosing regimen. The potential toxicity of PFK-158 was investigated by monitoring all clinical signs during the in-life phase, taking blood and urine samples for full clinical chemistry panels and urinalysis, monitoring body weights and food intake. Gross necropsy and complete histopathology were performed at the time of termination.

[6] = Chemical stability of Cremophor based IV formulation; type: physicochemical; details: about 1 mg/ml in Cremophor:ethyl alcohol 1:1 diluted 1:9 in saline, WFI, lactate Ringer's or D5W
Experimental: PFK-158 and its salts can be prepared in a Cremophor® based formulation. In one embodiment, 10 mg PFK-158 are dissolved in 1 ml of 1:1 v:v Cremophor®:ethyl alcohol solution using vigorous stirring. Once the compound is effectively dissolved, the solution is filtered and then added to saline, water for injection, lactate Ringer's, or D5W in a 1:9 ratio, resulting in a clear solution, free from particles, with a PFK-158 concentration of about 1 mg/ml. The composition is chemically stable for at least 6 hours and can be administered to mammals, including humans.

PFKFB3 [7] = target: T1, PFKFB3; test: Enzymatic activity of PFKFB3 in cells (F2,6BP levels, Van Schaftingen method); type: cell-based; parameters: endogenous in cells; host or cells: Jurkat cells
Experimental: Inhibition of PFKFB3 can also be measured in cells by measuring fructose-2,6-biphosphate levels according to the Van Schaftingen method (Eur. J. of Biochem, 129: 191 (1982)). This method enables measurement of the inhibition in a cellular environment, a model more relevant than the pure recombinant protein. Briefly, Jurkat cells were plated at 1×10^5 cells/mL and incubated with different concentrations of PFK-158 for 3 hours. Samples were collected and cells were lysed. Extracts were characterized as described in previous reports and normalized to protein concentration.

[8] = Table 7, Mouse (5 mg/kg), IV, Balbc mice
[9] = mouse, plasma, 5 mg/kg, Table 2, Balbc mice, IV dosing

T1 sequence (Q16875 whole entry): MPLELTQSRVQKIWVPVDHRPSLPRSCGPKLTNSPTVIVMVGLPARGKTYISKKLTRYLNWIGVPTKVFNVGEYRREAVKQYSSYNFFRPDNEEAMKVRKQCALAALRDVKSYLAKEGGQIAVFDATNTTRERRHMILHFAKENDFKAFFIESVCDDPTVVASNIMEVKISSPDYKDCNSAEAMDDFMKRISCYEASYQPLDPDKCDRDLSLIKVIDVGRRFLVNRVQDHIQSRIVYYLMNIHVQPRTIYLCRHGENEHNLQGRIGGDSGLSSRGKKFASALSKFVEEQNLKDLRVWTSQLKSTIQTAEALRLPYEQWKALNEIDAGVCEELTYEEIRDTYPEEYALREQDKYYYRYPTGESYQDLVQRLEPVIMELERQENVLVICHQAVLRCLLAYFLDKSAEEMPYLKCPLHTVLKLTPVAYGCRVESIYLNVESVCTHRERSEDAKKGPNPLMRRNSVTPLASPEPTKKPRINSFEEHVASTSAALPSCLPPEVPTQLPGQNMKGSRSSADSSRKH

Which results are given for `O=C(/C=C/c1ccc2ccc(C(F)(F)F)cc2n1)c1ccncc1` [PFK-158, (E)-1-(pyridyn-4-yl)-3-(7-(trifluoromethyl)quinolin-2-yl)-prop-2-en-1-one]?
IC50 (PFKFB3 [1]; FIG. 1, read-out: IC50, inhibition of recombinant PFKFB3 (ADP-Glo)): 137 ± 15 nM; IC50 (PFKFB3 [1]; Table 1, read-out: IC50, Enzymatic activity of PFKFB3, ADP Glo Assay): 137 ± 15 nM; IC50 (PFKFB3 [1]; Table 6, read-out: IC50 Rec PFKFB3): 137 ± 15 nM; IC50 (PFKFB3 [1]; Table 8, read-out: IC50, Enzymatic activity of PFKFB3, ADP-Glo Assay): 137 ± 15 nM; IC50 ([2]; Jurkat, Table 1, read-out: IC50, toxicity of Jurkat cell line (leukemia cell line)): 330 ± 100 nM; IC50 ([2]; Table 6, Jurkat cells, read-out: IC50 Cell Growth): 328 ± 15 nM; AUC(0-inf) [3, 8]: 3,235 ng · h/ml; Cmax [3, 8]: 4,176 ng/mL; T1/2b [3, 8]: 10.4 h; AUC(0-inf) ([3]; Table 9, BalbC mice, IV dosing): 3235 ng·h/mL; T1/2 ([3]; Table 9, BalbC mice, IV dosing): 10.5 h; clearance [3, 9]: 26 mL/min/kg; half-life [3, 9]: 10.5 h; AUC(0-inf) ([3]; mouse, plasma, 5 mg/kg, Table 2, Balbc mice, IV dosing, read-out: AUC0-inf): 3240 ng·h/mL; Cmax ([3]; mouse, plasma, 5 mg/kg, Table 2, Balbc mice, IV dosing, read-out: Cmax): 4180 ng/mL; T1/2b [4]: 8.6 h; AUC(0-inf) ([4]; plasma): 3300 ng·h/mL; Cmax ([4]; plasma): 18900 ng/mL; body weight loss (tolerability) (LLC tumor): no noticeable body weight loss; signs of toxicity ([5]; beagle dogs, 40 mg/kg three times a week for three weeks): no signs of toxicity; NOAEL at 3 weeks ([5]; both sexes, beagle, dog, in vivo): 40 mg/kg; Human Equivalent Dose (HED) of the NOAEL ([5]; dog, in vivo): 800 mg/m^2; chemical stability of composition [6]: at least 6 hours; IC50 (PFKFB3 [7]; FIG. 3, Jurkat cells, 3 hours, read-out: IC50, PFKFB3 in cells by fructose-2,6-biphosphate levels): 1600 ± 800 nM; IC50 (PFKFB3 [7]; Table 1, F2,6BP levels, Jurkat cells, read-out: IC50, Enzymatic activity of PFKFB3 in cells): 1600 ± 800 nM; IC50 (PFKFB3 [7]; Table 6, Jurkat cells, read-out: IC50 Cellular PFKFB3 (F2,6BP)): 1620 ± 400 nM; IC50 (PFKFB3 [7]; Table 8, read-out: IC50, Enzymatic activity of PFKFB3 in cells): 1600 ± 800 nM

Source: US9649305B2, “PFKFB3 inhibitor and methods of use as an anti-cancer therapeutic” (ADVANCED CANCER THERAPEUTICS, LLC, priority 2012, dated 2017)
